{"source": "patent US20230331679A1", "about": "“NAPHTHALENE MONOIMIDE COMPOUNDS AND METHODS THEREOF” (JAWAHARLAL NEHRU CENTRE FOR ADVANCED SCIENTIFIC RESEARCH, priority 2020, published 2023)", "key": {"APP/PS1 mice [1]": {"tested_on": "APP/PS1 mice", "assay": "Amyloid burden in brain by OC immunohistochemistry", "assay_type": "in vivo", "text": "To evaluate the activity of TGR63 to ameliorate amyloid burden in in vivo AD model, APP/PS1 mice were bred, maintained and characterized (WT: wild type; AD: APP/PS1 positive) according to the Jackson Laboratory protocols. The double transgenic APP/PS1 mice (B6C3-Tg (APPswe, PSEN IdE9)85Dbo/J; stock number 004462), which express human transgenes APP and presenilin 1 (PS1) in the central nervous system (CNS) contains the Swedish and […], respectively. The K595N/M596L (Swedish) mutation favors the amyloidogenic processing of APP protein, and PS1 mutation ([…]) elevates the production of Aβ peptides through modifying the intra-membrane γ-complex. The presence of Aβ plaques in the APP/PS 1 AD phenotypic mouse brain was confirmed and compared with the healthy brain by Aβ plaques-specific staining protocols. FIG. 13 depicts the Staining of amyloid plaques with OC primary antibody and ThT or CQ probe, FIG. 13A represent the high-resolution confocal microscopy images of cortex and hippocampus regions of the AD mouse brain, immunostained with OC antibody (red), DAPI (blue) and ThT (green). The merged images display significant overlap between ThT and OC staining to confirm the amyloid deposition (pointed with white arrows), FIG. 13A represent the visualization of amyloid deposits associated neuronal damage: The DIC images of different regions of AD. The merged images of DIC and confocal microscopy images show amyloid plaques associated brain damage (pointed out with red arrows). The brains were harvested from the age matched WT and AD mice and treated with PFA (4%) and sucrose solution (30%) for the sagittal brain sectioning (40 µm sections). The brain sections were co-stained with ThT (λex= 442 nm, λem= 482 nm) and OC primary antibody followed by fluorescently labeled secondary antibody (λex= 633 nm, λem= 650 nm) or CQ to visualize and confirm the amyloid plaques deposition. […] Similar fluorescence signals (green and red) were absent in the age-matched WT brain section, confirming the amyloid plaques-free healthy brain (FIG. 13A). The hippocampal damage, a hallmark of advanced AD condition was partially observed in 14 month old APP/PS1 mice. Age-matched AD, and WT cohorts were administered with TGR63 (5 mg/kg body weight/day) and vehicle starting from the age of 6 months following the treatment protocols as shown in FIG. 14. The experimental mice were sacrificed after completing the behavioral studies (14 months) to investigate amyloid deposits in the brain using immunohistochemistry. The sagittal brain sections were permeabilized and blocked with PBTx (0.1 M PBS and 0.1% TritonX-100) and goat serum (1%) containing BSA (2%) at room temperature, respectively. […]"}, "APP/PS1 mice [2]": {"tested_on": "APP/PS1 mice", "assay": "Open field (OF) test", "assay_type": "in vivo", "settings": "AD TGR63 cohort", "experimental": "In OF test, all the experimental mice were individually allowed to explore a novel platform (45 X 45 cm) and their locomotion activity was monitored for 5 min (Sony HDRCX405 camera) and analyzed using the smart 3 software (Panlab; FIG. 16A). […] The anxiety behaviors of TGR63 treated mice were assessed by the time spent and the entries in the center zone (20 X 20 cm) of OF arena. […] Next, the effect of TGR63 on memory processing, viz., acquisition, consolidation and retrieval were evaluated through NOI test, which has been widely used as a tool to study the neurobiology of memory using the natural tendency of rodents to explore novel objects more than the familiar objects. All the experimental mice were familiarized with two identical objects (familiar objects) in a known habituated arena and allowed to explore a novel and familiar object after 24 and 48 h of familiarization (FIG. 16E). The exploration time with each object was measured using a stopwatch, and the discrimination index (DI) was determined using the formula, (time exploring the novel object - time exploring the familiar) / (time exploring novel + familiar) * 100. […] Similarly, the calculated DI after 48 h was lowest (-7) for AD vehicle cohort compared to both vehicle and TGR63 treated WT cohorts (+43 and +45, respectively) (FIG. 16G). […] The blocking of essential synaptic receptors (NMDA and AMPA) by Aβ aggregation species leading to synaptic dysfunction followed by impairment in hippocampal LTP formation. […] TGR63 treatment ameliorates the memory impairment in APP/PS 1 mice by reducing the toxic amyloid burden from the brain under progressive AD conditions."}}, "data": [{"compound": "CN(C)c1ccc(C#Cc2ccc3c4c(cccc24)C(=O)N(CC[N+](C)(C)C)C3=O)cc1", "note": "[TGR63, 2-(6-((4-(dimethylamino)phenyl)ethynyl)-1,3-dioxo-1H-benzo[de]isoquinolin-2(3H)-yl)-N,N,N-trimethylethan-1-aminium]", "values": [{"measurement": "Aβ plaques deposits, area of the hippocampus", "setting": "APP/PS1 mice [1]; AD (APP/PS1) mice, 5 mg/kg body weight/day from 6 to 14 months, vehicle 6.28%", "result": 0.94, "unit": "% area"}, {"measurement": "Aβ plaques deposits, area of the cortex", "setting": "APP/PS1 mice [1]; AD (APP/PS1) mice, 5 mg/kg body weight/day from 6 to 14 months, vehicle 8.87%", "result": 1.94, "unit": "% area"}, {"measurement": "reduction of Aβ deposits in the cortex", "setting": "APP/PS1 mice [1]; AD mice, versus vehicle", "result": 78, "unit": "%"}, {"measurement": "reduction of Aβ deposits in the hippocampus", "setting": "APP/PS1 mice [1]; AD mice, versus vehicle", "result": 85, "unit": "%"}, {"measurement": "total distance traveled (average)", "setting": "APP/PS1 mice [2]; 5 min, AD vehicle 2698.25 cm, WT vehicle 1533.88 cm", "result": 1515.33, "unit": "cm"}, {"measurement": "distance traveled in the center zone (average)", "setting": "APP/PS1 mice [2]; AD vehicle 243.0 cm", "result": 98.14, "unit": "cm"}, {"measurement": "number of entries into the center zone", "setting": "APP/PS1 mice [2]; AD vehicle ~20", "result": "~ 9 entries"}]}]}
